{
  "source": "patent US10981884B2",
  "about": "“Process for the preparation of epoprostenol sodium of enhanced stability” (CHINOIN GYÓGYSZER ÉS VEGYÉSZETI TERMÉKEK GYÁRA ZRT., priority 2016, dated 2021)",
  "key": {"[1]": {"experiment": "Storage stability in deep-freezer (−20±5° C.), 6-oxo-PGF1alpha impurity content by HPLC", "format": "physicochemical", "conditions": "for 6-oxo-PGF1alpha content (HPLC): deep-freezer (−20 ± 5° C.), 4 mass % NaOH excess", "method": "(§1) Based on these unexpected experimental results we modified our new technology, we dissolved the funnel-wet, crystalline epoprostenol sodium salt in water, to the aqueous solution we added 2M NaOH solution in such an amount that the product, after lyophilisation contains 4 mass % excess of sodium hydroxide. The stability of the epoprostenol Na prepared by this new method is excellent, it can be stored in deep-freezer (−20±5° C.) for at least 3 years."}, "[2]": {"experiment": "Storage stability in deep-freezer (−20±5° C.), 6-oxo-PGF1alpha impurity content by HPLC", "format": "physicochemical", "conditions": "4-5-6% NaOH excesses compared"}, "[3]": {"experiment": "Storage stability in refrigerator (5±3° C.), 6-oxo-PGF1alpha impurity content by HPLC", "format": "physicochemical", "conditions": "for 6-oxo-PGF1alpha content (HPLC): refrigerator (5 ± 3° C.), 4 mass % NaOH excess", "method": "as §1, with “The” for “The stability of the”, “the” for “this”, “may” for “is excellent, it can”, “refrigerator (5±3°” for “deep-freezer (−20±5°”, “6 months (Table 3.).” for “3 years.”"}, "[4]": {"experiment": "Accelerated stability study of lyophilisates at room temperature in closed glass vessels, active ingredient content followed by HPLC", "format": "physicochemical", "conditions": "closed glass vessel", "method": "We investigated the effect of the sodium hydroxide amount used for the salt formation on the stability of the acid-sensitive epoprostenol Na. For this purpose the excess alkali which may be present in the epoprostenol Na salt was removed with strongly acidic cation exchange DOWEX resin, to the aqueous solution of the salt not containing excess alkali, different amounts of sodium hydroxide were added and the obtained solutions were lyophilized. From the 1% aqueous lyophilisate solutions we measured the pH and started accelerated stability studies at room temperature, in closed glass vessels. The change of the active ingredient content of the stability samples was followed by HPLC after 0, 24, 48 and 144 hours. From the measured active ingredient contents decomposition rates of epoprostenol Na have been calculated (Table 1.)."}, "[5]": {"conditions": "−30° C., white powder; cited from earlier work"}, "[6]": {"experiment": "pH of 1% aqueous lyophilisate solution", "format": "physicochemical", "method": "For this purpose the excess alkali which may be present in the epoprostenol Na salt was removed with strongly acidic cation exchange DOWEX resin, to the aqueous solution of the salt not containing excess alkali, different amounts of sodium hydroxide were added and the obtained solutions were lyophilized. From the 1% aqueous lyophilisate solutions we measured the pH and started accelerated stability studies at room temperature, in closed glass vessels."}, "[7]": {"conditions": "aqueous solution at physiological pH; cited from earlier work"}},
  "note": "Several values for one entry are separate records, joined by “and”; a condition that tells them apart may be missing. Identical values can stand only once.",
  "data": [
    {"smiles": "CCCCC[C@H](O)/C=C/[C@@H]1[C@H]2C/C(=C/CCCC(=O)[O-])O[C@H]2C[C@H]1O.[Na+]", "note": "[Epoprostenol Na, (5Z,9α,11α,13E,15S)-6,9-Epoxy-11,15-dihydroxyprosta-5,13-dien-1-acid sodium salt]", "values": [
      {"measurement": "6-oxo-PGF1alpha content (HPLC)", "setting": "[1]; month 0", "value": 0.2, "unit": "mass %"},
      {"measurement": "6-oxo-PGF1alpha content (HPLC)", "setting": "[1]; month 1", "value": 0.2, "unit": "mass %"},
      {"measurement": "6-oxo-PGF1alpha content (HPLC)", "setting": "[1]; month 3", "value": 0.2, "unit": "mass %"},
      {"measurement": "6-oxo-PGF1alpha content (HPLC)", "setting": "[1]; month 6", "value": 0.2, "unit": "mass %"},
      {"measurement": "6-oxo-PGF1alpha content (HPLC)", "setting": "[1]; month 9", "value": 0.2, "unit": "mass %"},
      {"measurement": "6-oxo-PGF1alpha content (HPLC)", "setting": "[1]; month 12", "value": 0.2, "unit": "mass %"},
      {"measurement": "6-oxo-PGF1alpha content (HPLC)", "setting": "[1]; month 18", "value": 0.2, "unit": "mass %"},
      {"measurement": "6-oxo-PGF1alpha content (HPLC)", "setting": "[1]; month 24", "value": 0.2, "unit": "mass %"},
      {"measurement": "6-oxo-PGF1alpha content (HPLC)", "setting": "[1]; month 36", "value": 0.2, "unit": "mass %"},
      {"measurement": "storage time (can be stored)", "setting": "[1]; deep-freezer (−20±5° C.), lyophilisate with 4 mass % NaOH excess", "value": "at least 3 years"},
      {"measurement": "stability in the storage praxis", "setting": "[2]", "value": "equally good"},
      {"measurement": "6-oxo-PGF1alpha content (HPLC)", "setting": "[3]; month 0", "value": 0.2, "unit": "mass %"},
      {"measurement": "6-oxo-PGF1alpha content (HPLC)", "setting": "[3]; month 1", "value": 0.3, "unit": "mass %"},
      {"measurement": "6-oxo-PGF1alpha content (HPLC)", "setting": "[3]; month 3", "value": 0.4, "unit": "mass %"},
      {"measurement": "6-oxo-PGF1alpha content (HPLC)", "setting": "[3]; month 6", "value": 0.2, "unit": "mass %"},
      {"measurement": "storage time (may be stored)", "setting": "[3]; refrigerator (5±3° C.), lyophilisate with 4 mass % NaOH excess", "value": "at least 6 months"},
      {"measurement": "PGI2Na decomposition", "setting": "[4]; 0.25 mass % NaOH added, sodium salt", "value": "34.9 %/month and 34.6 %/month"},
      {"measurement": "PGI2Na decomposition", "setting": "[4]; 2.5 mass % NaOH added, sodium salt", "value": "10.9 %/month and 10.6 %/month"},
      {"measurement": "PGI2Na decomposition", "setting": "[4]; 3.0 mass % NaOH added", "value": 8.8, "unit": "%/month"},
      {"measurement": "PGI2Na decomposition", "setting": "[4]; 4.0 mass % NaOH added", "value": 4.5, "unit": "%/month"},
      {"measurement": "PGI2Na decomposition", "setting": "[4]; 5.0 mass % NaOH added", "value": 1.7, "unit": "%/month"},
      {"measurement": "PGI2Na decomposition", "setting": "[4]; 5.5 mass % NaOH added", "value": 1.3, "unit": "%/month"},
      {"measurement": "PGI2Na decomposition", "setting": "[4]; 6.0 mass % NaOH added", "value": 1.7, "unit": "%/month"},
      {"measurement": "PGI2Na decomposition", "setting": "[4]; 7.5 mass % NaOH added", "value": 3.1, "unit": "%/month"},
      {"measurement": "PGI2Na decomposition", "setting": "[4]; 12.5 mass % NaOH added", "value": 3.5, "unit": "%/month"},
      {"measurement": "time lyophilisate remained stable", "setting": "[5]", "value": "at least two"},
      {"measurement": "pH (1% aqueous solution)", "setting": "[6]; lyophilisate with 0.25 mass % NaOH added, sodium salt", "value": "9.98 and 10.14"},
      {"measurement": "pH (1% aqueous solution)", "setting": "[6]; lyophilisate with 2.5 mass % NaOH added", "value": 11.64},
      {"measurement": "pH (1% aqueous solution)", "setting": "[6]; lyophilisate with 3.0 mass % NaOH added", "value": 11.70},
      {"measurement": "pH (1% aqueous solution)", "setting": "[6]; lyophilisate with 4.0 mass % NaOH added", "value": 11.78},
      {"measurement": "pH (1% aqueous solution)", "setting": "[6]; lyophilisate with 5.0 mass % NaOH added", "value": 11.86},
      {"measurement": "pH (1% aqueous solution)", "setting": "[6]; lyophilisate with 5.5 mass % NaOH added", "value": 11.90},
      {"measurement": "pH (1% aqueous solution)", "setting": "[6]; lyophilisate with 6.0 mass % NaOH added", "value": 11.92},
      {"measurement": "pH (1% aqueous solution)", "setting": "[6]; lyophilisate with 7.5 mass % NaOH added", "value": 12.00},
      {"measurement": "pH (1% aqueous solution)", "setting": "[6]; lyophilisate with 12.5 mass % NaOH added", "value": 12.15}
    ]},
    {"smiles": "CCCCC[C@H](O)/C=C/[C@@H]1[C@H]2C/C(=C/CCCC(=O)O)O[C@H]2C[C@H]1O", "note": "[prostacyclin]", "values": [
      {"measurement": "half-life", "setting": "[7]", "value": "3 to 4", "unit": "min"}
    ]}
  ]
}
